Measurements published in the supplement of paper PMC10627819.

How the values were obtained:
[1] = system: S. aureus Newman; experiment: Bliss interaction score (quartile over a dose matrix) (fitness difference); higher = more antagonism (negative = synergy)
Method in brief: (§1)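 Fitness here means normalised growth, inferred for single drugs from the combination data. Growth was OD595 at entry into stationary phase, divided by the plate's robust no-drug mean and capped at 1. The Bliss score is observed minus expected fitness, with the expectation being the product, and its quartiles span technical, biological and donor/recipient replicates.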

[2] = system: B. subtilis 168; experiment: as above
Method in brief: as §1

[3] = system: S. pneumoniae D39V; experiment: as above
Method in brief: as §1

[4] = system: S. aureus DSM 20231; experiment: as above
Method in brief: as §1

[5] = system: B. subtilis 168; experiment: fitness (endpoint OD595 vs no drug) (fraction); higher = more growth
Method in brief: (§2)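 With the first reading as background, OD595 was measured every 30 min for 14 h in 384-well plates kept at 37 °C and inoculated at OD595 0.01. TSB, LB Lennox or CY was the medium. Fitness is the optical density at the transition into stationary phase divided by the robust mean of no-drug control wells, with a cap of 1.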

[6] = system: S. pneumoniae D39V; experiment: as above
Method in brief: as §2
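For Bliss interaction score (quartile over a dose matrix) in this document: first quartile when negative (synergy) and third quartile when positive (antagonism).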
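For fitness (endpoint OD595 vs no drug) in this document: OD595 on entry to stationary phase over no-drug wells; at most 1.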

CCC[C@@H]1C[C@@H](C(=O)N[C@@H]([C@H]2O[C@H](SC)[C@H](O)[C@@H](O)[C@H]2O)[C@H](C)Cl)N(C)C1 [Clindamycin] + CCC(C)C1C(=O)NC(=C)C(=O)NC(C(=O)NC(CSCC(C(=O)N1)NC(=O)/C(=C/C)/NC(=O)C(C(C)CC)N)C(=O)NC2C(SCC(NC(=O)CNC(=O)C3CCCN3C2=O)C(=O)NC(CCCCN)C(=O)NC4C(SCC(NC(=O)CNC(=O)C(NC(=O)C(NC(=O)C(NC(=O)CNC4=O)C)CC(C)C)CCSC)C(=O)NC(CC(=O)N)C(=O)NC(CCSC)C(=O)NC(CCCCN)C(=O)NC5C(SCC6C(=O)NC(C(=O)NC(CSC(C(C(=O)N6)NC(=O)C(NC5=O)C)C)C(=O)NC(CO)C(=O)NC(C(C)CC)C(=O)NC(CC7=CN=CN7)C(=O)NC(C(C)C)C(=O)NC(=C)C(=O)NC(CCCCN)C(=O)O)CC8=CN=CN8)C)C)C)CC(C)C [Nisin]
main component drawn
Conditions | Bliss interaction score
[1] | 0.0857
[2] | 0.0605
[3] | -0.0351
[4] | 0.0292

fitness, [5], one replicate, main component drawn
Conditions | first compound 0.0039 µg/mL | first compound 0.0078 µg/mL | first compound 0.0156 µg/mL | first compound 0.0625 µg/mL | first compound 0.125 µg/mL | first compound 0.25 µg/mL
partner 0.5 µg/mL | 0.985 | 0.875 | 0.858 | 0.559 | 0.461 | 0.402
partner 1 µg/mL | 0.936 | 0.847 | 0.834 | 0.565 | 0.389 | 0.371
partner 1.25 µg/mL | – | – | – | 0.647 | 0.47 | 0.386
partner 1.6 µg/mL | – | – | – | 0.455 | 0.196 | 0.0539
partner 2 µg/mL | 0.855 | 0.771 | 0.742 | 0.261 | 0.25 | 0.0613
partner 2.5 µg/mL | – | – | – | 0.564 | 0.423 | 0.275
partner 3.2 µg/mL | – | – | – | 0.0252 | 0.0383 | 0.0454
partner 4 µg/mL | – | – | – | 0.0334 | 0.0299 | 0.0361
partner 5 µg/mL | – | – | – | 0.171 | 0.0548 | 0.0507
partner 6.4 µg/mL | – | – | – | 0.0392 | 0.0456 | 0.0461
partner 8 µg/mL | – | – | – | 0.0341 | 0.0157 | 0.0269
partner 16 µg/mL | – | – | – | 0.0049 | 0.0089 | 0.0163

[6], main component drawn
Conditions | fitness
first compound 0.0125 µg/mL, partner 1.6 µg/mL | 0.0319
first compound 0.0125 µg/mL, partner 3.2 µg/mL | 0.0224
first compound 0.0125 µg/mL, partner 6.4 µg/mL | 0.0205
first compound 0.015 µg/mL, partner 0.4275 µg/mL | 0.923
first compound 0.015 µg/mL, partner 1.71 µg/mL | 0.11
first compound 0.025 µg/mL, partner 1.6 µg/mL | 0.0417
first compound 0.025 µg/mL, partner 3.2 µg/mL | 0.0389
first compound 0.025 µg/mL, partner 6.4 µg/mL | 0.0111
first compound 0.03 µg/mL, partner 0.4275 µg/mL | 0.774
first compound 0.03 µg/mL, partner 1.71 µg/mL | 0.0769
first compound 0.05 µg/mL, partner 1.6 µg/mL | 0.0221
first compound 0.05 µg/mL, partner 3.2 µg/mL | 0.0421
first compound 0.05 µg/mL, partner 6.4 µg/mL | 0.0305
first compound 0.06 µg/mL, partner 0.4275 µg/mL | 0.645
first compound 0.06 µg/mL, partner 0.855 µg/mL | 0.252
first compound 0.06 µg/mL, partner 1.71 µg/mL | 0.0778

CCC[C@@H]1C[C@@H](C(=O)N[C@@H]([C@H]2O[C@H](SC)[C@H](O)[C@@H](O)[C@H]2O)[C@H](C)Cl)N(C)C1 [Clindamycin] + CN(C)C(=O)C(CCN1CCC(O)(c2ccc(Cl)cc2)CC1)(c1ccccc1)c1ccccc1 [Loperamide]
Conditions | Bliss interaction score
[1] | -0.0895
[2] | 0.149
[3] | 0.2
[4] | 0.0957

fitness, one replicate
Conditions | first compound 0.0039 µg/mL | first compound 0.0078 µg/mL | first compound 0.015 µg/mL | first compound 0.0156 µg/mL | first compound 0.03 µg/mL | first compound 0.06 µg/mL
[5], partner 25 µg/mL | 0.924 | 0.814 | – | 0.793 | – | –
[5], partner 50 µg/mL | 0.862 | 0.754 | – | 0.595 | – | –
[5], partner 100 µg/mL | 0.53 | 0.385 | – | 0.259 | – | –
[6], partner 68.57 µg/mL | – | – | 0.982 | – | 0.896 | 0.725

Conditions | fitness
[5], first compound 0.0625 µg/mL, partner 25 µg/mL | 0.577
[5], first compound 0.0625 µg/mL, partner 50 µg/mL | 0.0289
[5], first compound 0.0625 µg/mL, partner 100 µg/mL | 0.0293
[5], first compound 0.125 µg/mL, partner 25 µg/mL | 0.418
[5], first compound 0.125 µg/mL, partner 50 µg/mL | 0.0399
[5], first compound 0.125 µg/mL, partner 100 µg/mL | 0.0277
[5], first compound 0.25 µg/mL, partner 25 µg/mL | 0.254
[5], first compound 0.25 µg/mL, partner 50 µg/mL | 0.0473
[5], first compound 0.25 µg/mL, partner 100 µg/mL | 0.0404
[6], first compound 0.0125 µg/mL, partner 20 µg/mL | 0.82
[6], first compound 0.0125 µg/mL, partner 40 µg/mL | 0.859
[6], first compound 0.0125 µg/mL, partner 80 µg/mL | 0.858
[6], first compound 0.015 µg/mL, partner 17.14 µg/mL | 0.938
[6], first compound 0.015 µg/mL, partner 34.28 µg/mL | 0.946
[6], first compound 0.025 µg/mL, partner 20 µg/mL | 0.614
[6], first compound 0.025 µg/mL, partner 40 µg/mL | 0.62
[6], first compound 0.025 µg/mL, partner 80 µg/mL | 0.597
[6], first compound 0.03 µg/mL, partner 17.14 µg/mL | 0.778
[6], first compound 0.03 µg/mL, partner 34.28 µg/mL | 0.769
[6], first compound 0.05 µg/mL, partner 20 µg/mL | 0.316
[6], first compound 0.05 µg/mL, partner 40 µg/mL | 0.329
[6], first compound 0.05 µg/mL, partner 80 µg/mL | 0.285
[6], first compound 0.06 µg/mL, partner 17.14 µg/mL | 0.688
[6], first compound 0.06 µg/mL, partner 34.28 µg/mL | 0.639

CCC[C@@H]1C[C@@H](C(=O)N[C@@H]([C@H]2O[C@H](SC)[C@H](O)[C@@H](O)[C@H]2O)[C@H](C)Cl)N(C)C1 [Clindamycin] + CO[C@@H]1[C@@H](OC(N)=O)[C@@H](O)[C@H](Oc2ccc3c(O)c(NC(=O)c4ccc(O)c(CC=C(C)C)c4)c(=O)oc3c2C)OC1(C)C [Novobiocin]
Conditions | Bliss interaction score
[1] | 0.16
[2] | -0.063
[3] | -0.102
[4] | 0.0437

fitness, [5], one replicate
Conditions | first compound 0.0039 µg/mL | first compound 0.0078 µg/mL | first compound 0.0156 µg/mL | first compound 0.0625 µg/mL | first compound 0.125 µg/mL | first compound 0.25 µg/mL
partner 0.05 µg/mL | ≥ 1 | 0.895 | 0.867 | – | – | –
partner 0.1 µg/mL | ≥ 1 | 0.889 | 0.843 | – | – | –
partner 0.125 µg/mL | – | – | – | 0.526 | 0.496 | 0.348
partner 0.2 µg/mL | ≥ 1 | 0.903 | 0.818 | – | – | –
partner 0.25 µg/mL | – | – | – | 0.411 | 0.39 | 0.318
partner 0.5 µg/mL | – | – | – | 0.353 | 0.276 | 0.0724

fitness, [5]
Conditions | first compound 0.0625 µg/mL | first compound 0.125 µg/mL | first compound 0.25 µg/mL
partner 0.0125 µg/mL | 0.558 | 0.365 | 0.346
partner 0.025 µg/mL | 0.563 | 0.334 | 0.326
partner 0.05 µg/mL | 0.581 | 0.369 | 0.325
